Source: ChEMBL document CHEMBL2202959, “Essential structure of opioid κ receptor agonist nalfurafine for binding to the κ receptor 3: synthesis of decahydro(iminoethano)phenanthrene derivatives with an oxygen functionality at the 3-position and their pharmacologies” (Bioorg Med Chem Lett, 2012)

Legend:
[1] = Selectivity ratio of Ki for delta opioid receptor in mouse whole brain membranes without cerebellum to Ki for kappa opioid receptor in guinea pig cerebellum membranes; type: cell membranes
[2] = Selectivity ratio of Ki for mu opioid receptor in mouse whole brain membranes without cerebellum to Ki for kappa opioid receptor in guinea pig cerebellum membranes; type: cell membranes
[3] = molecular target: Kappa-type opioid receptor (Cavia porcellus, UniProt P41144); experiment: Displacement of [3H]U-69,593 from kappa opioid receptor in guinea pig cerebellum membranes; type: cell membranes, Membrane
[4] = molecular target: Delta-type opioid receptor (Mus musculus, UniProt P32300); experiment: Displacement of [3H]DPDPE from delta opioid receptor in mouse whole brain membranes without cerebellum; type: cell membranes, Membrane
[5] = molecular target: Mu-type opioid receptor (Mus musculus, UniProt P42866); experiment: Displacement of [3H]DAMGO from mu opioid receptor in mouse whole brain membranes without cerebellum; type: cell membranes, Membrane
Chain of Mu-type opioid receptor (P42866 whole entry): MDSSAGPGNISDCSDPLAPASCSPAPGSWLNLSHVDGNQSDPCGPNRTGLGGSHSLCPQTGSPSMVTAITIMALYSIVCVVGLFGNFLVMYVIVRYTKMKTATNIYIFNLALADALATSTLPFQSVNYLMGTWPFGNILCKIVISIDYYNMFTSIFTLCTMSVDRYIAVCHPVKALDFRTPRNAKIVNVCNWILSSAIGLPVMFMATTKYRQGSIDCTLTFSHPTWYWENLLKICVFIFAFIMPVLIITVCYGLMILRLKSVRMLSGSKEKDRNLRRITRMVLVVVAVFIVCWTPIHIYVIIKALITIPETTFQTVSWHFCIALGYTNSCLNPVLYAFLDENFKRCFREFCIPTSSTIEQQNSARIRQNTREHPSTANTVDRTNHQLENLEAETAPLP

Chain of Delta-type opioid receptor (P32300 whole entry): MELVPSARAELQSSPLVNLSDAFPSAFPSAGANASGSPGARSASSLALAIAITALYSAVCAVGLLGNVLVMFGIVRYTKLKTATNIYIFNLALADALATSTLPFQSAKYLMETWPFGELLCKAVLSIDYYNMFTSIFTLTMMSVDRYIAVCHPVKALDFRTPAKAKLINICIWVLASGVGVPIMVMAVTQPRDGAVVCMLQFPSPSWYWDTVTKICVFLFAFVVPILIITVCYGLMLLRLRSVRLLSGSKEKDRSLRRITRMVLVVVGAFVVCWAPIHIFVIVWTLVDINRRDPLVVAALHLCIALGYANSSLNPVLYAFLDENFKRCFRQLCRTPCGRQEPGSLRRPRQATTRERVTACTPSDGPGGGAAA
Chain of Kappa-type opioid receptor (P41144 whole entry): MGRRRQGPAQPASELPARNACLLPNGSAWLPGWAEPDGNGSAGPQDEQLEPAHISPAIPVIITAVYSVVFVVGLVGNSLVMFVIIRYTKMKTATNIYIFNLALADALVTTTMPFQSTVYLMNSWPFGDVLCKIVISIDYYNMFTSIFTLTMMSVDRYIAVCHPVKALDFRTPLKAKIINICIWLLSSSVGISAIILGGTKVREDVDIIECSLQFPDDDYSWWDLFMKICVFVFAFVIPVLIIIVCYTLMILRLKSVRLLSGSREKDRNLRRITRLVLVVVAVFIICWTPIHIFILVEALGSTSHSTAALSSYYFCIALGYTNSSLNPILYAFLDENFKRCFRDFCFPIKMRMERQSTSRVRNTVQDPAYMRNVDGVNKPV

CN(C(=O)/C=C/c1ccoc1)[C@@H]1CC[C@@]2(O)[C@H]3Cc4ccccc4[C@@]2(CCN3CC2CC2)C1
Ratio Ki [1]: 95
Ratio Ki [2]: 36
Ki [3]: 0.34 nM
Ki [4]: 32.4 nM
Ki [5]: 12.3 nM

CN(C(=O)/C=C/c1ccoc1)[C@@H]1CC[C@@]2(O)[C@H]3CC4=C(CC(=O)CC4)[C@@]2(CCN3CC2CC2)C1
Ratio Ki [1]: 5.1
Ratio Ki [2]: 3.5
Ki [3]: 14.5 nM
Ki [4]: 74.2 nM
Ki [5]: 51.1 nM

CN(C(=O)/C=C/c1ccoc1)[C@H]1CC[C@@]2(O)[C@H]3CC4=C(C[C@@H](O)CC4)[C@@]2(CCN3CC2CC2)C1
Ratio Ki [1]: 19
Ratio Ki [2]: 12
Ki [3]: 0.451 nM
Ki [4]: 8.66 nM
Ki [5]: 5.49 nM

CN(C(=O)/C=C/c1ccoc1)[C@@H]1CC[C@@]2(O)[C@H]3CC4=C(C[C@@H](O)CC4)[C@@]2(CCN3CC2CC2)C1
Ratio Ki [1]: 328
Ratio Ki [2]: 49
Ki [3]: 0.711 nM
Ki [4]: 233 nM
Ki [5]: 34.7 nM

CN(C(=O)/C=C/c1ccoc1)[C@H]1CC[C@@]2(O)[C@H]3CC4=C(C[C@H](O)CC4)[C@@]2(CCN3CC2CC2)C1
Ratio Ki [1]: 7.7
Ratio Ki [2]: 4.8
Ki [3]: 1.1 nM
Ki [4]: 8.45 nM
Ki [5]: 5.26 nM

CN(C(=O)/C=C/c1ccoc1)[C@H]1CC[C@@]2(O)[C@H]3CC4=C(CC(=O)CC4)[C@@]2(CCN3CC2CC2)C1
Ratio Ki [1]: 20
Ratio Ki [2]: 12
Ki [3]: 2.23 nM
Ki [4]: 44.5 nM
Ki [5]: 26 nM

CN(C(=O)/C=C/c1ccoc1)[C@H]1CC[C@H]2[C@H]3CC4=C(CCCC4)[C@@]2(CCN3CC2CC2)C1
Ratio Ki [1]: 14
Ratio Ki [2]: 3.8
Ki [3]: 2.28 nM
Ki [4]: 32.9 nM
Ki [5]: 8.62 nM

CN(C(=O)/C=C/c1ccoc1)[C@H]1CC[C@@]2(O)[C@H]3Cc4cccc5c4[C@@]2(CCN3CC2CC2)[C@H]1O5
Ratio Ki [1]: 146
Ratio Ki [2]: 26
Ki [3]: 0.34 nM
Ki [4]: 49.5 nM
Ki [5]: 8.88 nM

CN(C(=O)/C=C/c1ccoc1)[C@H]1CC[C@@]2(O)[C@H]3CC4=C(CCCC4)[C@@]2(CCN3CC2CC2)C1
Ratio Ki [1]: 13
Ratio Ki [2]: 71
Ki [3]: 2.06 nM
Ki [4]: 26.4 nM
Ki [5]: 147 nM

CN(C(=O)/C=C/c1ccoc1)[C@@H]1CC[C@@]2(O)[C@H]3CC4=C(C[C@H](O)CC4)[C@@]2(CCN3CC2CC2)C1
Ratio Ki [1]: 65
Ratio Ki [2]: 79
Ki [3]: 0.733 nM
Ki [4]: 47.5 nM
Ki [5]: 57.6 nM

CN(C(=O)/C=C/c1ccoc1)[C@H]1CC[C@@]2(O)[C@H]3Cc4ccccc4[C@@]2(CCN3CC2CC2)C1
Ratio Ki [1]: 19
Ratio Ki [2]: 22
Ki [3]: 0.303 nM
Ki [4]: 5.65 nM
Ki [5]: 6.52 nM

CN(C(=O)/C=C/c1ccoc1)[C@H]1CC[C@@]2(O)[C@H]3Cc4ccc(O)cc4[C@@]2(CCN3CC2CC2)C1
Ratio Ki [1]: 3.8
Ratio Ki [2]: 2
Ki [3]: 0.163 nM
Ki [4]: 0.623 nM
Ki [5]: 0.324 nM
